According to PMC9719791 (Science translational medicine, 2021):

Target: SUMO activating enzyme (SAE) (Homo sapiens, UniProt Q9UBE0+Q9UBT2)
Test: E1-E2 HTRF transthiolation assay with recombinantly purified SAE
Assay type: biochemical

Sequence of SUMO activating enzyme (SAE) (Q9UBT2 whole entry): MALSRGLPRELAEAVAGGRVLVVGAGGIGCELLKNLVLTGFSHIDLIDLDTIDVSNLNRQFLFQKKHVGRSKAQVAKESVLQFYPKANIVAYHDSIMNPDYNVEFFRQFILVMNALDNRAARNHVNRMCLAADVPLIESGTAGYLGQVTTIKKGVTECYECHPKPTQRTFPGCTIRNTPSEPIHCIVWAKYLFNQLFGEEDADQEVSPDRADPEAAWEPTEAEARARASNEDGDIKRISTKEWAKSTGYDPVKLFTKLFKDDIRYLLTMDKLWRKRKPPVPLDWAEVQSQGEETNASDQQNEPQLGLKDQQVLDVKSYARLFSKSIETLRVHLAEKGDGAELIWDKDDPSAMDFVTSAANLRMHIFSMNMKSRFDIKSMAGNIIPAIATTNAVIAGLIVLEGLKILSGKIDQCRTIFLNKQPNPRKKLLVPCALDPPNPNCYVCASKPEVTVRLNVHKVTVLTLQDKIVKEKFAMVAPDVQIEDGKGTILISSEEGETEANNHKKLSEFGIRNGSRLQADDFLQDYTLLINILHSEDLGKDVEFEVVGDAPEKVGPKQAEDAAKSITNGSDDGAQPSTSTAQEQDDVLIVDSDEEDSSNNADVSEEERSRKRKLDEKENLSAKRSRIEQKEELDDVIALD
Sequence of SUMO activating enzyme (SAE) (Q9UBE0 whole entry): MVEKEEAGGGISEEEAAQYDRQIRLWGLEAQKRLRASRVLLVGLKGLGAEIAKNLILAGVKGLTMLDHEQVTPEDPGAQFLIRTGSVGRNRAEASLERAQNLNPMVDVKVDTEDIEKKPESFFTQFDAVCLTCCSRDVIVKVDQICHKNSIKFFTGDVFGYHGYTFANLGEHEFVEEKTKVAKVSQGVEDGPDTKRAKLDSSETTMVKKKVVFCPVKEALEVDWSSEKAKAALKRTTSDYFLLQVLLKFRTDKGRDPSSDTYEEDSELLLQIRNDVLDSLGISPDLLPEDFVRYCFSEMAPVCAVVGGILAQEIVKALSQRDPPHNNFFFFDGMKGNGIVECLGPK
Sequence of SUMO activating enzyme (SAE) (P63279 2-158 partner): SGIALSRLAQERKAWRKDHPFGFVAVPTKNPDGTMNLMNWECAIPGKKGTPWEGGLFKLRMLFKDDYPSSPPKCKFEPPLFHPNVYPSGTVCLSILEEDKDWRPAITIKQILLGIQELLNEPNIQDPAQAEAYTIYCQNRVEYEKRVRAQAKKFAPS

Cc1sc(C(=O)c2cncnc2N[C@@H]2C[C@H](COS(N)(=O)=O)[C@@H](O)C2)cc1[C@@H]1NCCc2ccc(Cl)cc21 [TAK-981, ((1R,2S,4R)-4-((5-(4-((1R)-7-chloro-1,2,3,4-tetrahydroisoquinolin-1-yl)-5-methylthiophene-2-carbonyl)pyrimidin-4-yl)amino)-2-hydroxycyclopentyl)methyl sulfamate]
IC50: 0.6 nM
